{"source": "paper PMC7782499", "about": "“Progerinin, an optimized progerin-lamin A binding inhibitor, ameliorates premature senescence phenotypes of Hutchinson-Gilford progeria syndrome” (Communications Biology, 2021)", "key": {"HGPS cells": {"tested_on": "HGPS cells", "test": "SA-β-gal staining senescence assay in HGPS cells", "format": "cell-based, human", "text": "Fig. S3. Chemical screening with JH4 derivatives (a total of 53 chemicals except JH010 and SLC -D011 were used). A. Summarized tables for effects of JH4 derivatives. ‘+’ means s t re ngt h of binding affinity or expression level after treatment of chemicals. Middle columns of tables show binding affinity between progerin and lamin A. Third columns of tables show level of progerin expression. […]\nsevere cytotoxicity (cell death or none). B , C, and D. Examples of screening based on pull-down assay. All chemicals were tested using GST pull-down assay. […]\ninhibition activity than JH4. E. Generation of J H4 derivatives. To prevent rapid digestion in vivo, side chain was replaced by amide bond (J H010) or ether bond (SLC-D011).\nH3K9me3 levels after treatment with J H010 and D011 in HGPS cells (n = 3 independent experiments; two- […]\nwith J H4, JH010, and SLC-D011 in HGPS cells (n = 3 independent experiments; two- tailed Student’s t- […]\nfibroblasts from normal person and patients with HGPS (n = 3 independent experiments; two- tailed Student’s t -test), **p < 0.001, *p< 0.05. I. Transcriptional levels of progerin are not affected by treatment with SLC-D011. Total RNA was extracted after treatment with SLC-D011 for 7 days. The PCR products correspond to wild- type prelamin A and progerin transcripts. […]"}, "Lmna G609G/+ mouse": {"tested_on": "Lmna G609G/+ mouse", "test": "Histology analysis (Masson Trichrome, H&E)", "format": "in vivo", "conditions": "Lmna G609G/+ mice, oral 50 mg/kg daily, 8 weeks", "method": "Tissue specimens were fixed in 4% PFA and embedded in paraffin. Paraffin blocks were sectioned and transferred onto adhesive-coated slides. After deparaffinization and rehydration, tissue sections were stained with Masson Trichrome. Histology analysis was performed by BioLead Inc. (Seoul, Korea).\nFig. S11. Histological analysis of age- matched Lmna+/+ mice (left), untreated Lamn G609G/+ mice (middle) and progerinin- treated LmnaG609G/+ mice (right, Lmna +/+: n = 4; un tr e at e d Lmna G609G/+: n = 6; pr o ge r in -treated LmnaG609G/+: n=6). A -C. Masson Trichrome staining for fibrosis analysis was performed after 8-week treatment. A. Reduction of fibrosis in heart after administration of progeirnin in L mn a G609G transgenic mice.\nThe collagen-rich fibrotic area (blue) is widely distributed in untreated LmnaG609G/+ mi c e compared to Lmna+/+ and progerin- treated LmnaG609G/+ mi c e. B. Fibrosis in liver of Lmna G609G transgenic mice was reduced by progerinin. C. Unt r eat ed LmnaG609G/+ mi c e show a relatively loose connection between blood vessel walls and tissues in lungs. D -E. Hematoxylin and Eosin (H&E) staining was performed to compare skin and bones of Lmna +/+ and LmnaG609G mice. Conditions of foot pad skin (D), vertebra (E), and femur (F) of Lmna +/+ and progerin-treated LmnaG609G/+ mice were better than those of untreated Lmna G609G/+ mice. […]"}, "CYP1A2": {"molecular_target": "T1, CYP1A2 (Homo sapiens, UniProt P05177)", "T1 sequence (P05177 1-516)": "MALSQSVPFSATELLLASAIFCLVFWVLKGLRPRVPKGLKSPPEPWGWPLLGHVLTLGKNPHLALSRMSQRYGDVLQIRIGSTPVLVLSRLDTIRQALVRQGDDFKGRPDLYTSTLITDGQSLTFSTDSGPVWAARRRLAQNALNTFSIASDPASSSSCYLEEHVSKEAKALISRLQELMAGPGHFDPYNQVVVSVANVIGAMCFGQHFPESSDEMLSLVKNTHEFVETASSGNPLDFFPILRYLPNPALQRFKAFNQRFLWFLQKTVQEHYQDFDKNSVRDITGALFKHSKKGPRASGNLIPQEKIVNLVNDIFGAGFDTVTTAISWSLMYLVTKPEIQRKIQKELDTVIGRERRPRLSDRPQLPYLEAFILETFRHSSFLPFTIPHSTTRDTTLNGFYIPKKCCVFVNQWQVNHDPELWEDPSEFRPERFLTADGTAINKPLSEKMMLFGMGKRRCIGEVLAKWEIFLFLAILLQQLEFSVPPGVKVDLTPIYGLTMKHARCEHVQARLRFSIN", "test": "CYP inhibition, CYP1A2", "format": "in vitro ADME", "method": "At pre-set time-points, blood concentration of JH4 was determined by LC-MS/MS analysis[22],[23]. Other chemicals were also tested using similar protocol. In vitro ADME studies (plasma protein binding, CYP inhibition, microsomal stability, plasma stability, and hERG inhibition) were performed by New Drug Development Center (Daegu, Korea) using standard protocols[24],[25]."}}, "data": [{"compound": "CC1(C)Oc2cc3oc(=O)ccc3cc2C[C@@H]1OC/C=C/c1ccccc1", "note": "[SLC-D011]", "values": [{"measurement": "Cellular senescence (SA-β-gal staining)", "setting": "HGPS cells", "result": "could block cellular senescence"}, {"measurement": "Fibrosis in heart and liver (Masson Trichrome)", "setting": "Lmna G609G/+ mouse", "result": "reduced"}, {"measurement": "CYP inhibition", "setting": "CYP1A2", "result": 81.6}]}]}
